# Read-outs that look alike come from different tables or passages of the source.
# Tests used:
# [1] = tested on: TTR tetramer (recombinant human transthyretin WT, T119M, V30M); type: binding; conditions: probe solution 10 μM; recombinant TTR 100 ng/mL; FIG. 14A-D
# [2] = target: T1, TTR tetramer (recombinant human transthyretin WT, T119M, V30M) (Homo sapiens, UniProt P02766, V50M); type: binding; conditions: probe solution 0.3 μM immobilized; FIG. 16A
# T1 construct: purchased AlexoTech T-500-10 (WT); T-515-10 (T119M); T-505-10 (V30M)
# [3] = tested on: TTR tetramer (recombinant human transthyretin WT, T119M, V30M); type: binding; conditions: probe solution 0.3 μM immobilized on solid phase; recombinant TTR 100 ng/mL; FIG. 16A-B
# [4] = target: T2, TTR tetramer (recombinant human transthyretin WT, T119M, V30M) (Homo sapiens, UniProt P02766, T139M); type: binding; conditions: probe solution 0.3 μM immobilized; FIG. 16A
# T2 construct: purchased AlexoTech T-500-10 (WT); T-515-10 (T119M); T-505-10 (V30M)
# [5] = target: T1, TTR tetramer (recombinant human transthyretin WT, T119M, V30M); type: binding; conditions: probe solution 0.2 μM; FIG. 18A
# [6] = tested on: TTR tetramer (recombinant human transthyretin WT, T119M, V30M); type: binding; conditions: probe solution 0.2 μM mixed with sample; FIG. 18A-B
# [7] = target: T2, TTR tetramer (recombinant human transthyretin WT, T119M, V30M); type: binding; conditions: probe solution 0.2 μM; FIG. 18A
# [8] = Comparative Example 2: 48-hour urea treatment, then sandwich ELISA (TTR 4mer %); type: physicochemical, human; conditions: urea 7.2 M, 25° C., Dunnett's test, FIG. 24A
# Procedure: The recombinant TTR of the wild-type (WT), the stabilized variant (Ti19M), and the destabilized variant (V30M) as in Example 1 were used as the recombinant TTR. These recombinant TTRs were diluted with 1% BSA/PBS, to prepare a sample containing 16 µg/mL of each recombinant TTR. Sera obtained from patients with atrial fibrillation (n=26), wild-type ATTR patients (n=18), and ATTR patients with destabilized mutation (A36D) (n=2) were diluted 10 times with 1% BSA/PBS, to prepare various serum samples. A calibrator was prepared in the same manner as in Comparative Example 1.
# As the detection antibody and the labeling substance, a biotin-labeled antibody solution and an ALP solution were prepared in the same manner as in Comparative Example 1. An anti-TTR antibody solution was prepared as the capture antibody in the same manner as in Comparative Example 1. […]
# Each sample was measured by sandwich ELISA in the same manner as in (3.2) of Comparative Example 1. The calibrator was measured in the same manner. A calibration curve was prepared from the measured values of the calibrators, and the TTR level of each sample was acquired with use of the calibration curve. TTR 4 mer % of the sample after the urea treatment was calculated from the following calculation formula, using the TTR levels of the sample after the urea treatment and the sample without the urea treatment. […]
# [9] = target: T1, TTR tetramer (recombinant human transthyretin WT, T119M, V30M); type: binding; conditions: probe solution 10 μM; recombinant TTR 100 ng/mL; FIG. 14A
# [10] = target: T2, TTR tetramer (recombinant human transthyretin WT, T119M, V30M); type: binding; conditions: probe solution 10 μM; recombinant TTR 100 ng/mL; FIG. 14A
compound,measurement,setting,value
biotin-PEG12-thyroxine [Probe C2],"chemiluminescence signal measured values of WT, T119M and V30M samples versus blank",[1],results similar to those of FIG. 14 A
"O=C(CCCCC1SCC2NC(=O)NC21)NCCOCCOCCOCCOCCOCCOCCOCCOCCC(=O)Nc1ccc(/C=C/c2cc(Br)c(O)c(Br)c2)cc1 (stereo not shown) [Probe C5, Biotin-PEG8-Stilbene Derivative]","chemiluminescence signal measured values of WT, T119M and V30M samples versus blank",[1],results similar to those of FIG. 14 A
same,signal measured value of V30M sample relative to WT sample,[2],lower than the signal measured value of WT
same,"chemiluminescence signal measured values of WT, T119M and V30M samples versus blank",[3],higher than the signal measured value of the blank
same,signal measured value of T119M sample relative to WT sample,[4],higher than the signal measured value of WT
same,signal measured value of V30M sample relative to WT sample,[5],lower than the signal measured value of WT
same,"chemiluminescence signal measured values of WT, T119M and V30M samples versus blank",[6],higher than the signal measured value of the blank
same,signal measured value of T119M sample relative to WT sample,[7],higher than the signal measured value of WT
"transthyretin (T119M) human, recombinant [Probe T119M]",TTR 4mer % relative to the sample containing wild-type TTR,[8],significantly higher
transthyretin (V30M) human [Probe V30M],TTR 4mer % relative to the sample containing wild-type TTR,[8],significantly lower
Biotin-PEG8-Thyroxine [Probe C1],signal measured value of V30M sample relative to WT sample,[9],lower than the signal measured value of WT
same,"chemiluminescence signal measured values of WT, T119M and V30M samples versus blank",[1],higher than the signal measured value of the blank
same,signal measured value of T119M sample relative to WT sample,[10],higher than the signal measured value of WT
